In article PMC5218480 (PLoS ONE, 2017):

System: MV-4-11 cells
Test: Gene expression microarray analysis (Affymetrix PrimeView) and GSEA
Assay type: cell-based, human
Design: RFU PODN (11730768_x_at) / Fold change /veh PODN (11730768_x_at) / RFU LINC00158 (11744669_a_at) / Fold change /veh LINC00158 (11744669_a_at) / RFU DUSP10 (11751237_a_at) / Fold change /veh DUSP10 (11751237_a_at) / RFU ID3 (11757404_x_at) / Fold change /veh ID3 (11757404_x_at) / RFU PLEKHG5 (11737974_s_at) / Fold change /veh PLEKHG5 (11737974_s_at) / RFU LRRC4B (11730491_at) / Fold change /veh LRRC4B (11730491_at) / RFU GIMAP4 (11747438_a_at) / Fold change /veh GIMAP4 (11747438_a_at) / RFU KRT8 (11758183_x_at) / Fold change /veh KRT8 (11758183_x_at) / RFU CNN1 (11734310_a_at) / Fold change /veh CNN1 (11734310_a_at) / RFU VPS37D (11726825_at) / Fold change /veh VPS37D (11726825_at) / RFU C10orf10 (11716522_x_at) / Fold change /veh C10orf10 (11716522_x_at) / RFU KIR2DL2 /// KIR2DL4 /// KIR2DL5A /// KIR2DL5B /// KIR2DS1 /// KIR2DS2 /// KIR2DS3 /// KIR2DS4 /// KIR3DL3 /// KIR3DL3 /// KIR3DS1 (11738374_at) / Fold change /veh KIR2DL2 /// KIR2DL4 /// KIR2DL5A /// KIR2DL5B /// KIR2DS1 /// KIR2DS2 /// KIR2DS3 /// KIR2DS4 /// KIR3DL3 /// KIR3DL3 /// KIR3DS1 (11738374_at) / RFU C1QL1 (11718748_at) / Fold change /veh C1QL1 (11718748_at) / RFU TMPRSS4 (11747572_a_at) / Fold change /veh TMPRSS4 (11747572_a_at) / RFU HAMP (11756126_x_at) / Fold change /veh HAMP (11756126_x_at) / RFU RNFT2 (11725882_a_at) / Fold change /veh RNFT2 (11725882_a_at) / RFU NR4A2 (11747474_a_at) / Fold change /veh NR4A2 (11747474_a_at) / RFU ABCC12 (11746883_a_at) / Fold change /veh ABCC12 (11746883_a_at) / RFU TMEM136 (11760407_x_at) / Fold change /veh TMEM136 (11760407_x_at) / RFU CLDN22 /// WWC2 (11732394_at) / Fold change /veh CLDN22 /// WWC2 (11732394_at) / RFU HLA-DPB1 (11760878_x_at) / Fold change /veh HLA-DPB1 (11760878_x_at) / RFU SPINT1 (11716480_a_at) / Fold change /veh SPINT1 (11716480_a_at) / RFU GAP43 (11754022_s_at) / Fold change /veh GAP43 (11754022_s_at) / RFU A4GNT (11735810_at) / Fold change /veh A4GNT (11735810_at) / RFU PRB3 (11715151_x_at) / Fold change /veh PRB3 (11715151_x_at) / RFU TUBB4B (11761932_at) / Fold change /veh TUBB4B (11761932_at) / RFU CAPN14 (11732068_a_at) / Fold change /veh CAPN14 (11732068_a_at) / RFU TMCC2 (11721928_a_at) / Fold change /veh TMCC2 (11721928_a_at) / RFU IRGQ (11745062_a_at) / Fold change /veh IRGQ (11745062_a_at) / RFU FAM174B (11720279_a_at) / Fold change /veh FAM174B (11720279_a_at) / RFU TMPRSS4 (11748680_a_at) / Fold change /veh TMPRSS4 (11748680_a_at) / RFU FAM212B (11763350_a_at) / Fold change /veh FAM212B (11763350_a_at) / RFU PLEKHG5 (11743358_a_at) / Fold change /veh PLEKHG5 (11743358_a_at) / RFU ZSCAN30 (11745921_a_at) / Fold change /veh ZSCAN30 (11745921_a_at) / RFU CMKLR1 (11741424_a_at) / Fold change /veh CMKLR1 (11741424_a_at) / RFU LOC101060620 /// MAPK8IP1 (11723275_at) / Fold change /veh LOC101060620 /// MAPK8IP1 (11723275_at) / RFU SPTSSB (11747773_x_at) / Fold change /veh SPTSSB (11747773_x_at) / RFU PRSS12 (11739890_at) / Fold change /veh PRSS12 (11739890_at) / RFU BIN1 (11741810_x_at) / Fold change /veh BIN1 (11741810_x_at) / RFU WNT11 (11732464_a_at) / Fold change /veh WNT11 (11732464_a_at) / RFU C10orf10 (11716521_a_at) / Fold change /veh C10orf10 (11716521_a_at) / RFU C5orf56 (11738089_at) / Fold change /veh C5orf56 (11738089_at) / RFU CYB561 (11721691_x_at) / Fold change /veh CYB561 (11721691_x_at) / RFU ANKRD19P (11752326_a_at) / Fold change /veh ANKRD19P (11752326_a_at) / RFU OR2T12 /// OR2T33 /// OR2T8 (11738714_s_at) / Fold change /veh OR2T12 /// OR2T33 /// OR2T8 (11738714_s_at) / RFU VCAN (11748164_a_at) / Fold change /veh VCAN (11748164_a_at) / RFU JSRP1 (11732532_at) / Fold change /veh JSRP1 (11732532_at) / RFU KRTAP10-11 (11738290_x_at) / Fold change /veh KRTAP10-11 (11738290_x_at) / RFU MYO3A (11730013_a_at) / Fold change /veh MYO3A (11730013_a_at) / RFU EBF3 (11725865_a_at) / Fold change /veh EBF3 (11725865_a_at) / RFU CAMK2N1 (11719241_x_at) / Fold change /veh CAMK2N1 (11719241_x_at) / RFU C5orf56 (11738088_a_at) / Fold change /veh C5orf56 (11738088_a_at) / RFU OLFML3 (11715873_a_at) / Fold change /veh OLFML3 (11715873_a_at) / RFU LOC100653217 /// NTM (11731650_a_at) / Fold change /veh LOC100653217 /// NTM (11731650_a_at) / RFU MAPK11 (11762145_a_at) / Fold change /veh MAPK11 (11762145_a_at) / RFU FIZ1 (11724087_x_at) / Fold change /veh FIZ1 (11724087_x_at) / RFU OASL (11726364_x_at) / Fold change /veh OASL (11726364_x_at) / RFU SOX15 (11748057_x_at) / Fold change /veh SOX15 (11748057_x_at) / RFU CD79A (11719716_a_at) / Fold change /veh CD79A (11719716_a_at) / RFU HIST1H1D (11736915_at) / Fold change /veh HIST1H1D (11736915_at) / RFU CASKIN2 (11723855_a_at) / Fold change /veh CASKIN2 (11723855_a_at) / RFU LOC730098 (11760151_x_at) / Fold change /veh LOC730098 (11760151_x_at) / RFU OR4N2 (11742367_at) / Fold change /veh OR4N2 (11742367_at) / RFU PRRT2 (11749266_a_at) / Fold change /veh PRRT2 (11749266_a_at) / RFU SNX32 (11753110_a_at) / Fold change /veh SNX32 (11753110_a_at) / RFU CDHR5 (11726645_a_at) / Fold change /veh CDHR5 (11726645_a_at) / RFU RCAN1 (11760418_a_at) / Fold change /veh RCAN1 (11760418_a_at) / RFU FAM167A (11723789_a_at) / Fold change /veh FAM167A (11723789_a_at) / RFU FAM26E (11764081_at) / Fold change /veh FAM26E (11764081_at) / RFU ISYNA1 (11749810_s_at) / Fold change /veh ISYNA1 (11749810_s_at) / RFU ACY1 (11761880_at) / Fold change /veh ACY1 (11761880_at) / RFU 11764098_at / Fold change /veh 11764098_at / RFU SAMD14 (11745864_x_at) / Fold change /veh SAMD14 (11745864_x_at) / RFU NPB (11741838_a_at) / Fold change /veh NPB (11741838_a_at) / RFU TMPRSS6 (11731388_a_at) / Fold change /veh TMPRSS6 (11731388_a_at) / RFU KRTAP10-2 (11738614_at) / Fold change /veh KRTAP10-2 (11738614_at) / RFU ARHGAP8 /// PRR5-ARHGAP8 (11727945_x_at) / Fold change /veh ARHGAP8 /// PRR5-ARHGAP8 (11727945_x_at) / RFU KRTAP5-7 /// NADSYN1 (11734609_at) / Fold change /veh KRTAP5-7 /// NADSYN1 (11734609_at) / RFU RASL12 (11751679_a_at) / Fold change /veh RASL12 (11751679_a_at) / RFU CDKN2B (11736163_a_at) / Fold change /veh CDKN2B (11736163_a_at) / RFU PRF1 (11729649_at) / Fold change /veh PRF1 (11729649_at) / RFU, ZNF638 /// ZNF638-IT1 / Fold change vs veh, ZNF638 /// ZNF638-IT1 / RFU, PANK3 / Fold change vs veh, PANK3 / RFU, SH3YL1 / Fold change vs veh, SH3YL1 / RFU, ZEB2 / Fold change vs veh, ZEB2 / RFU, NRIP1 / Fold change vs veh, NRIP1 / RFU, PTTG1IP / Fold change vs veh, PTTG1IP / RFU, CAPN2 / Fold change vs veh, CAPN2 / RFU, MED14 / Fold change vs veh, MED14 / RFU, SNORA58 / Fold change vs veh, SNORA58 / RFU, C1orf63 / Fold change vs veh, C1orf63 / RFU, LRRFIP1 / Fold change vs veh, LRRFIP1 / RFU, NDUFAF7 / Fold change vs veh, NDUFAF7 / RFU, SLC12A2 / Fold change vs veh, SLC12A2 / RFU, IBTK / Fold change vs veh, IBTK / RFU, ESF1 / Fold change vs veh, ESF1 / Fold change vs veh, TMEM50B / RFU, TAOK1 / Fold change vs veh, TAOK1 / RFU, ACBD3 / Fold change vs veh, ACBD3 / RFU, TMA16 / Fold change vs veh, TMA16 / RFU, RWDD3 / Fold change vs veh, RWDD3 / RFU, BCAT1 / Fold change vs veh, BCAT1 / RFU, EDEM3 / Fold change vs veh, EDEM3 / RFU, TMEM33 / Fold change vs veh, TMEM33 / RFU, WDR75 / Fold change vs veh, WDR75 / RFU, AHCTF1 / Fold change vs veh, AHCTF1 / RFU, TFRC / Fold change vs veh, TFRC / RFU, ZDHHC17 / Fold change vs veh, ZDHHC17 / RFU, NOM1 / Fold change vs veh, NOM1 / RFU, ARL8B / Fold change vs veh, ARL8B / RFU, ZBTB11 / Fold change vs veh, ZBTB11 / RFU, TAMM41 / Fold change vs veh, TAMM41 / RFU, KIAA1704 /// LOC100996395 / Fold change vs veh, KIAA1704 /// LOC100996395 / RFU, ING1 / Fold change vs veh, ING1 / RFU, TRMT61B / Fold change vs veh, TRMT61B / RFU, FUBP3 / Fold change vs veh, FUBP3 / RFU, TP53 / Fold change vs veh, TP53 / RFU, TNKS2 / Fold change vs veh, TNKS2 / RFU, ZFP14 / Fold change vs veh, ZFP14 / RFU, ACTR2 / Fold change vs veh, ACTR2 / RFU, PPP3R1 / Fold change vs veh, PPP3R1 / RFU, PIK3R1 / Fold change vs veh, PIK3R1 / RFU, HNRNPA1 / Fold change vs veh, HNRNPA1 / RFU, RNF170 / Fold change vs veh, RNF170 / RFU, ZNF28 / Fold change vs veh, ZNF28 / RFU, RNGTT / Fold change vs veh, RNGTT / RFU, OGT / Fold change vs veh, OGT / RFU, BRD1 / Fold change vs veh, BRD1 / RFU, MARS / Fold change vs veh, MARS / RFU, ZNF655 / Fold change vs veh, ZNF655 / RFU, FAHD1 / Fold change vs veh, FAHD1 / RFU, BDP1 / Fold change vs veh, BDP1 / RFU, LRRCC1 / Fold change vs veh, LRRCC1 / RFU, ARID1A / Fold change vs veh, ARID1A / RFU, ZNF146 / Fold change vs veh, ZNF146 / RFU, ZNF330 / Fold change vs veh, ZNF330 / RFU, GPN3 / Fold change vs veh, GPN3 / RFU, C9orf123 / Fold change vs veh, C9orf123 / RFU, N4BP2L2 / Fold change vs veh, N4BP2L2 / RFU, ARFIP1 / Fold change vs veh, ARFIP1 / RFU, FAM179B / Fold change vs veh, FAM179B / RFU, BCL10 / Fold change vs veh, BCL10 / RFU, UHRF1BP1L / Fold change vs veh, UHRF1BP1L / RFU, BET1 / Fold change vs veh, BET1 / RFU, CNOT2 / Fold change vs veh, CNOT2 / RFU, ZNF268 / Fold change vs veh, ZNF268 / Fold change vs veh, ZNF507 / RFU, DGCR2 / Fold change vs veh, DGCR2 / RFU, WDSUB1 / Fold change vs veh, WDSUB1 / Fold change vs veh, HSP90B1 /// MIR3652 / RFU, ADSS / Fold change vs veh, ADSS / RFU, GK / Fold change vs veh, GK / RFU, ZNF148 / Fold change vs veh, ZNF148 / RFU, TAF9 / Fold change vs veh, TAF9 / RFU, SLC1A5 / Fold change vs veh, SLC1A5 / RFU, SLMO2 / Fold change vs veh, SLMO2 / RFU, ABCC4 / Fold change vs veh, ABCC4 / RFU, LOC101060439 /// RAP1B / Fold change vs veh, LOC101060439 /// RAP1B / RFU, RFX7 / Fold change vs veh, RFX7 / RFU, GTPBP10 / Fold change vs veh, GTPBP10 / RFU, CNEP1R1 / Fold change vs veh, CNEP1R1 / RFU, BIVM-ERCC5 /// ERCC5 / Fold change vs veh, BIVM-ERCC5 /// ERCC5 / RFU, ILF3 / Fold change vs veh, ILF3 / RFU 11762660_at / Fold change /veh 11762660_at / RFU VCAN (11757783_s_at) / Fold change /veh VCAN (11757783_s_at) / RFU DDX43 (11728927_at) / Fold change /veh DDX43 (11728927_at) / RFU KRT8 (11758188_x_at) / Fold change /veh KRT8 (11758188_x_at) / RFU NKD1 (11759106_at) / Fold change /veh NKD1 (11759106_at) / RFU SRD5A1 (11742802_a_at) / Fold change /veh SRD5A1 (11742802_a_at) / RFU TPSAB1 /// TPSB2 (11721975_s_at) / Fold change /veh TPSAB1 /// TPSB2 (11721975_s_at) / RFU GSTM3 (11746129_a_at) / Fold change /veh GSTM3 (11746129_a_at) / RFU IL23R (11737362_x_at) / Fold change /veh IL23R (11737362_x_at) / RFU TMEM51 (11727254_a_at) / Fold change /veh TMEM51 (11727254_a_at) / RFU PIWIL2 (11732686_x_at) / Fold change /veh PIWIL2 (11732686_x_at) / RFU ORM1 (11744905_x_at) / Fold change /veh ORM1 (11744905_x_at) / RFU CCDC152 (11743942_at) / Fold change /veh CCDC152 (11743942_at) / RFU ECM1 (11717891_a_at) / Fold change /veh ECM1 (11717891_a_at) / RFU IL23R (11748794_a_at) / Fold change /veh IL23R (11748794_a_at) / RFU TNFAIP8L3 (11732012_x_at) / Fold change /veh TNFAIP8L3 (11732012_x_at) / RFU MBOAT4 (11741988_at) / Fold change /veh MBOAT4 (11741988_at) / RFU 11764193_at / Fold change /veh 11764193_at / RFU TMEM53 (11763286_at) / Fold change /veh TMEM53 (11763286_at) / RFU MAGEB2 (11727129_at) / Fold change /veh MAGEB2 (11727129_at) / RFU TMEM200A (11744735_a_at) / Fold change /veh TMEM200A (11744735_a_at) / RFU CCDC152 (11751479_a_at) / Fold change /veh CCDC152 (11751479_a_at) / RFU FAM211A (11726209_a_at) / Fold change /veh FAM211A (11726209_a_at) / RFU RGS16 (11746705_a_at) / Fold change /veh RGS16 (11746705_a_at) / RFU VCAN (11755009_s_at) / Fold change /veh VCAN (11755009_s_at) / RFU RHOB (11743442_s_at) / Fold change /veh RHOB (11743442_s_at) / RFU RGS16 (11720943_a_at) / Fold change /veh RGS16 (11720943_a_at) / RFU RGS16 (11720944_at) / Fold change /veh RGS16 (11720944_at) / RFU, VPS4B / Fold change vs veh, VPS4B / RFU, CREB1 / Fold change vs veh, CREB1 / RFU, DNAJC13 / Fold change vs veh, DNAJC13 / RFU, GNAQ / Fold change vs veh, GNAQ / RFU, CDK5R1 / Fold change vs veh, CDK5R1 / RFU, ZRANB3 / Fold change vs veh, ZRANB3 / RFU, CUL4A / Fold change vs veh, CUL4A / RFU, CCNY / Fold change vs veh, CCNY / RFU, UFL1 / Fold change vs veh, UFL1 / RFU, COG3 / Fold change vs veh, COG3 / RFU, DIAPH2 / Fold change vs veh, DIAPH2 / RFU, SKA2 / Fold change vs veh, SKA2 / RFU, AFF3 / Fold change vs veh, AFF3 / RFU, LMF1 / Fold change vs veh, LMF1 / RFU, IPO11 / Fold change vs veh, IPO11 / RFU, DFFB / Fold change vs veh, DFFB / RFU, FOXP1 / Fold change vs veh, FOXP1 / RFU, CARD8 / Fold change vs veh, CARD8 / RFU, STRN3 / Fold change vs veh, STRN3 / RFU, ADK / Fold change vs veh, ADK / RFU, RASSF2 / Fold change vs veh, RASSF2 / RFU, WIPF1 / Fold change vs veh, WIPF1 / RFU, LARP1B / Fold change vs veh, LARP1B / RFU, RASA1 / Fold change vs veh, RASA1 / RFU, RB1 / Fold change vs veh, RB1 / RFU, PPFIA1 / Fold change vs veh, PPFIA1 / RFU, MAT2A / Fold change vs veh, MAT2A / RFU, CCT5 / Fold change vs veh, CCT5 / RFU, WDR92 / Fold change vs veh, WDR92 / RFU, CUX1 / Fold change vs veh, CUX1 / RFU, TTC7A / Fold change vs veh, TTC7A / RFU, TMEM135 / Fold change vs veh, TMEM135 / RFU, DEPTOR / Fold change vs veh, DEPTOR / RFU, CPM / Fold change vs veh, CPM / RFU, DNAJB6 / Fold change vs veh, DNAJB6 / RFU, CACNA2D3 / Fold change vs veh, CACNA2D3 / RFU, DTX4 / Fold change vs veh, DTX4 / RFU, TFCP2 / Fold change vs veh, TFCP2 / RFU, GMCL1 /// GMCL1P1 / Fold change vs veh, GMCL1 /// GMCL1P1 / RFU, AEBP2 / Fold change vs veh, AEBP2 / RFU, SNHG1 /// SNORD22 /// SNORD25 /// SNORD26 /// SNORD27 /// SNORD28 /// SNORD29 /// SNORD31 / Fold change vs veh, SNHG1 /// SNORD22 /// SNORD25 /// SNORD26 /// SNORD27 /// SNORD28 /// SNORD29 /// SNORD31 / Fold change (Aza/veh), C12orf56 (ProbeSet 11735607_a_at) / Fold change (ACY-1035/veh), C12orf56 (ProbeSet 11735607_a_at) / Fold change (Aza/veh), FGFR1OP (ProbeSet 11751329_s_at) / Fold change (ACY-1035/veh), FGFR1OP (ProbeSet 11751329_s_at) / Fold change (Aza/veh), VPS36 (ProbeSet 11739960_a_at) / Fold change (ACY-1035/veh), VPS36 (ProbeSet 11739960_a_at) / RFU SYPL1 (11715823_x_at) / Fold change /veh SYPL1 (11715823_x_at) / RFU IGFBP7 (11715501_s_at) / Fold change /veh IGFBP7 (11715501_s_at) / RFU REEP3 (11722064_at) / Fold change /veh REEP3 (11722064_at) / RFU IGLL1 (11728026_x_at) / Fold change /veh IGLL1 (11728026_x_at): dose or concentration left out as unconfirmed
Conditions: ProbeSet 11754362_a_at; LIST D

Nc1ccc(-c2cccs2)cc1NC(=O)c1ccc2c(c1)cc(C1CC1)n2CCN1CCOCC1 [ACY-1035]
RFU, TTC7A: 150.96 RFU
